# US20090130070A1, “METHOD OF TREATMENT” (The University of Queensland, priority 2004, published 2009)
# Test system: Human epidermal keratinocytes (HaCaT cells)
# Experiment: "scrape" in vitro wound healing model (wound closure of a scraped confluent monolayer)
# Format: cell-based
# Settings: for wound width, day 1: day 1 (24 hours); for wound width, day 2: day 2 (48 hours)
# Procedure: The “scrape” in vitro wound healing model has been previously presented in the literature (Li, F. et al., 2000, Exp Cell Res., 258(2): 245-253; Firth J. D. et al., 2004, J. Invest. Dermatol., 122(1): 222-231). In this model a scrape across a confluent monolayer of cells is used to simulate a wound and the effect of agents added to serum free media is tested on the rate of closure of the gap.
# Human epidermal keratinocytes (HaCaT cells) were plated at a density of 1×10^5 cells/well into Nunc 6 well plates in Dulbecco's Modified Eagle Medium (DMEM) containing 10% fetal bovine serum (FBS) benzyl penicillin (100 IU/ml), streptomycin […] confluence (2 days) monolayers were “wounded” with a 1 ml pipette tip (0.5 mm width) by scraping the tip across the centre of the well. The wells were then washed 5 times with DMEM. One ml of either DMEM with 10% FBS, DMEM or DMEM with: 3, 6, 12 or 24 mgs/ml bovine fetuin A (Sigma), 6.25, 12.5, 25 or 50 μg/ml peptide TGF peptide antagonist (Corresponding to residues 41-65 of TGFβ-1-3:—Huang S. S. et al., 1997, Journal of Biological Chemistry, 272(43):27155-27159) and 2.1, 4.2, 8.4 and 16.8 mg/ml bovine thyroglobulin was added to each well (2 replicates per plate, 4 plates). These concentrations were calculated to have equivalent antagonistic effect on the binding of TGFβ-1 to its receptor for each of the compounds. All DMEM solutions used contained benzyl penicillin (100 IU/ml), streptomycin ([…]) and fungizone (250 mg/ml). A mark was placed on the base of each well at right angles to the “wound” and the wound was photographed at the intersection of the mark and wound with a Nikon EOS 300 digital camera fitted to a JenaMed (Ziess Jena) inverted microscope (50×). Images were taken at the same positions 24 and 48 hours after addition of the treatment media. Digital images were analysed with Image Pro (Media Cybernetics) image analysis software and an image of a Nikon stage micrometer was used for calibration of length measurements. Results were summarized as the wound width after 24 and 48 hours.
# [1] = 6.25 μg/ml TGF peptide antagonist in DMEM
# [2] = 12.5 μg/ml TGF peptide antagonist in DMEM
# [3] = 25 μg/ml TGF peptide antagonist in DMEM
# [4] = 50 μg/ml TGF peptide antagonist in DMEM
# [5] = 2.1 mg/ml bovine thyroglobulin in DMEM
# [6] = 4.2 mg/ml bovine thyroglobulin in DMEM
# [7] = 8.4 mg/ml bovine thyroglobulin in DMEM
# [8] = 16.8 mg/ml bovine thyroglobulin in DMEM
substance,measurement,setting,value
"TGFB-R inhibitor: peptide TGF peptide antagonist corresponding to residues 41-65 of TGFβ-1-3 (Huang S. S. et al., 1997) (ANFCLGPCPYIWSLDTQYSKVLALY; Transforming growth factor beta-1; UniProt P01137 319-343, looked up, fragment)","wound width, day 0",[1],0.6779
same,"wound width, day 1",[1],0.5473
same,"wound width, day 2",[1],0.4866
same,"wound width, day 0",[2],0.6751
same,"wound width, day 1",[2],0.5515
same,"wound width, day 2",[2],0.4839
same,"wound width, day 0",[3],0.6643
same,"wound width, day 1",[3],0.5341
same,"wound width, day 2",[3],0.4688
same,"wound width, day 0",[4],0.6371
same,"wound width, day 1",[4],0.554
same,"wound width, day 2",[4],0.498
"Thyroglobulin: bovine thyroglobulin, comparator that binds members of the TGF-β superfamily","wound width, day 0",[5],0.6587
same,"wound width, day 1",[5],0.413
same,"wound width, day 2",[5],0.4941
same,"wound width, day 0",[6],0.6428
same,"wound width, day 1",[6],0.5772
same,"wound width, day 2",[6],0.5393
same,"wound width, day 0",[7],0.6669
same,"wound width, day 1",[7],0.5742
same,"wound width, day 2",[7],0.5909
same,"wound width, day 0",[8],0.6152
same,"wound width, day 1",[8],0.5981
same,"wound width, day 2",[8],0.6132
